{"source": "paper PMC4811503", "about": "“A method for quantification of exportin-1 (XPO1) occupancy by Selective Inhibitor of Nuclear Export (SINE) compounds” (Oncotarget, 2015)", "format_in_all_cases": "cell-based", "key": {"XPO1": {"target": "XPO1 (Homo sapiens, UniProt O14980)", "sequence (O14980 whole entry)": "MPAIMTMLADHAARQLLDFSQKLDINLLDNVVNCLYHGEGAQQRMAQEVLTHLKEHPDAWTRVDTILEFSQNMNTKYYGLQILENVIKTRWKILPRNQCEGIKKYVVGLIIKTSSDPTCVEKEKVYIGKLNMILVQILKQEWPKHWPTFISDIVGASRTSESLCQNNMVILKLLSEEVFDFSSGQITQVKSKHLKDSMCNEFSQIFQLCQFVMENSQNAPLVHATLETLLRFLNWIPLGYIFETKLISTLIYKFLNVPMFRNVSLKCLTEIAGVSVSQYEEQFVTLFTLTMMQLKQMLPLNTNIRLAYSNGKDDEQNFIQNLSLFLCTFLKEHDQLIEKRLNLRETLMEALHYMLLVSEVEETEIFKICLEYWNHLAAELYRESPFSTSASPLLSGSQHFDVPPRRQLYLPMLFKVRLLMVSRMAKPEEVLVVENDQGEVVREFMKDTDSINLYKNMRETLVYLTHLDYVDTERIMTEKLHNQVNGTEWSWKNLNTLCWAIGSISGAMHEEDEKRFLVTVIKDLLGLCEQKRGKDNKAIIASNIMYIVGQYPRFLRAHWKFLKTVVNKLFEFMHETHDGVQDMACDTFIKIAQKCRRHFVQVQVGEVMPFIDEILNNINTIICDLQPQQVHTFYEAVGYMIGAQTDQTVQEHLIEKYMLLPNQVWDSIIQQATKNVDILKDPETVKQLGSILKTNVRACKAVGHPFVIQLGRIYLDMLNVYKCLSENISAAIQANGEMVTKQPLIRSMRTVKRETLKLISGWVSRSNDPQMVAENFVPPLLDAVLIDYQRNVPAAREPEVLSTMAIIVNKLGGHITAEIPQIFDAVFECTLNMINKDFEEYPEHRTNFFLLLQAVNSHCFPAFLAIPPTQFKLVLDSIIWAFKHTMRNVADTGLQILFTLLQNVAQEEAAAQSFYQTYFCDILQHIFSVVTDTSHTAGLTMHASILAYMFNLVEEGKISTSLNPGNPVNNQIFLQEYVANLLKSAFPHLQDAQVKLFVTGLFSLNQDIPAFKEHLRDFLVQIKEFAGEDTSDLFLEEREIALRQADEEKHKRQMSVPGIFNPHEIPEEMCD", "assay": "XPO1 occupancy assay in cultured cell lines (biotinylated probe pull-down, Simple Western)", "design": "Cells were collected, washed with PBS, and lysed with RIPA Buffer; endogenous in cells; host or cells: MM.1S", "protocol": "b-LMB was tested for the ability to bind XPO1 protein. First, a dose-response curve was generated by exposing MM.1S cells to increasing concentrations of b-LMB (0 – 500 nM) for 1.5 hours in culture. The cells were then collected, lysed, and a portion of the lysate (input) was reserved prior to incubating the remaining lysate with streptavidin-tagged beads overnight. After extensive washes, b-LMB bound XPO1 was eluted from the beads, and XPO1 from both input and bead eluate was detected and quantified by Simple Western on Peggy Sue. Simple Western allows for the chemiluminescent detection of proteins from small volumes of samples that are run through a matrix-filled capillary. The signal is detected by a CCD camera which generates a digital image and then reports quantitative results. […] The protein signals for XPO1 detected by Simple Western in Figure 2A were reported as mean peak areas and were used to compare levels of XPO1 present in each sample to produce a graphical representation of the ratio of free XPO1 detected at each concentration of b-LMB (Figure 2B). “Ratio of bound XPO1” is defined as the ratio of the mean peak area of b-LMB bound XPO1 detected in the eluate compared to the mean peak area of all XPO1 detected in the input lysate, while “free-fraction” refers to the amount of XPO1 not occupied by SINE compound, as described later.\nThe cells were then collected and processed for the XPO1 occupancy assay. […] For these assays, the “ratio of free-fraction XPO1” is calculated by dividing the mean peak areas of XPO1 occupied by b-LMB (from the eluate) by the total amount of XPO1 (from the input).\nCells were collected, washed with PBS, and lysed with RIPA Buffer (Thermo Scientific) with protease inhibitors [Complete Ultra Tablets, Mini, EDTA-free, Easy pack (Roche), PhosStop Easy (Roche)]. A portion of the lysate was reserved (input) while the rest was added to washed Dynabeads MyOne Streptavidin T1 (Invitrogen) with RIPA Buffer. Samples were incubated overnight with constant rotation at 4°C. Beads were then washed 5 times with modified RIPA (150 mM NaCl, 50 mM Tris, 1% NP-40, 0.1% Na deoxycholate, 1 mM EDTA, pH 7.8). The reserved portion of lysates (input) and the beads were each mixed with Protein Simple buffer (Protein Simple), DTT (Invitrogen), and fluorescent standards (Protein Simple), then boiled at 95°C for 10 min. Eluates and inputs were analyzed using a capillary western method (Peggy Sue; Protein Simple) with the following primary antibodies: XPO1 (Santa Cruz) and β-actin (Santa Cruz). Capillary westerns were performed by SBH Sciences (Natick, MA). Peak areas corresponding to the protein molecular weight of XPO1 and actin were compared for sample inputs, while the ratio of XPO1 peak areas in eluate to input (ratio of bound or free-fraction XPO1) versus compound concentration were used in XLFit model 205 to calculate 50% and 90% occupancy curves."}, "UCH2": {"test_system": "UCH2", "assay": "MTT cytotoxicity assay", "conditions": "read-out: Selinexor IC50 (μM)"}, "MM.1S": {"test_system": "MM.1S", "assay": "MTT cytotoxicity assay", "conditions": "Homo sapiens, MM1.S"}, "HCT-116": {"test_system": "HCT-116", "assay": "MTT cytotoxicity assay", "conditions": "Homo sapiens"}, "THP-1": {"test_system": "THP-1", "assay": "MTT cytotoxicity assay", "conditions": "Homo sapiens, read-out: Selinexor IC50 (μM)"}, "LS174T": {"test_system": "LS174T", "assay": "MTT cytotoxicity assay", "conditions": "Homo sapiens, read-out: Selinexor IC50 (μM)"}, "A549": {"test_system": "A549", "assay": "MTT cytotoxicity assay", "conditions": "Homo sapiens, read-out: Selinexor IC50 (μM)"}, "HT1080 resistant": {"test_system": "HT1080 resistant", "assay": "MTT cytotoxicity assay", "conditions": "Homo sapiens, HT-1080, read-out: Selinexor IC50 (μM)"}, "AML2": {"test_system": "AML2", "assay": "MTT cytotoxicity assay"}, "HT1080": {"test_system": "HT1080", "assay": "MTT cytotoxicity assay", "conditions": "Homo sapiens, HT-1080, read-out: Selinexor IC50 (μM)"}, "HEL": {"test_system": "HEL", "assay": "MTT cytotoxicity assay", "conditions": "Homo sapiens, read-out: Selinexor IC50 (μM)"}, "[1]": {"conditions": "read-out: Selinexor IC50 (μM), MTT"}}, "note": "Values joined by “and” are separate entries in the source; they are usually repeats but may differ in a detail not shown here. Equal entries are not always repeated. Where two headings read alike, the source gives them in different places.", "data": [{"smiles": "O=C(/C=C\\n1cnc(-c2cc(C(F)(F)F)cc(C(F)(F)F)c2)n1)NNc1cnccn1", "note": "[Selinexor, selinexor]", "values": [{"measurement": "90% Occupancy selinexor", "setting": "XPO1; A549", "value": 0.56, "unit": "µM"}, {"measurement": "90% Occupancy selinexor", "setting": "XPO1; AML2", "value": 0.22, "unit": "µM"}, {"measurement": "90% Occupancy selinexor", "setting": "XPO1; AML3", "value": 0.46, "unit": "µM"}, {"measurement": "90% Occupancy selinexor", "setting": "XPO1; ASPS-KY", "value": 0.72, "unit": "µM"}, {"measurement": "90% Occupancy selinexor", "setting": "XPO1; HCT-116", "value": 0.76, "unit": "µM"}, {"measurement": "90% Occupancy selinexor", "setting": "XPO1; HEL", "value": 0.31, "unit": "µM"}, {"measurement": "90% Occupancy selinexor", "setting": "XPO1; HT1080", "value": 1.35, "unit": "µM"}, {"measurement": "90% Occupancy selinexor", "setting": "XPO1; HT1080 resistant", "value": 1.67, "unit": "µM"}, {"measurement": "90% Occupancy selinexor", "setting": "XPO1; Kasumi-6", "value": 0.57, "unit": "µM"}, {"measurement": "90% Occupancy selinexor", "setting": "XPO1; LS174T", "value": 0.38, "unit": "µM"}, {"measurement": "90% Occupancy selinexor", "setting": "XPO1; MM.1S", "value": 0.48, "unit": "µM"}, {"measurement": "Avg 90% Occupancy (μM)", "setting": "XPO1; MM.1S cells, SINE compound 1 hour, then 1 nM b-LMB […]", "value": "0.52 +/− 0.05 (n = 2) μM"}, {"measurement": "90% Occupancy", "setting": "XPO1; MM.1S cells, followed by 0.1 μM KPT-9058 as probe", "value": "0.1 µM and 0.10 µM"}, {"measurement": "90% Occupancy selinexor", "setting": "XPO1; MV-4–11", "value": 0.61, "unit": "µM"}, {"measurement": "90% of XPO1 occupancy", "setting": "XPO1; Rev-GFP U2OS cells, selinexor 1 hour, then 1 nM b-LMB […]", "value": 0.48, "unit": "µM"}, {"measurement": "90% Occupancy", "setting": "XPO1; Rev-GFP U2OS, selinexor 4 hours, 0 hours post washout, 1 nM b-LMB", "value": 0.16, "unit": "µM"}, {"measurement": "90% Occupancy", "setting": "XPO1; Rev-GFP U2OS, selinexor 4 hours, 4 hours post washout, 1 nM b-LMB", "value": 2.87, "unit": "µM"}, {"measurement": "90% Occupancy", "setting": "XPO1; Rev-GFP U2OS, selinexor 4 hours, 24 hours post washout, 1 nM b-LMB", "value": "> 10", "unit": "µM"}, {"measurement": "90% Occupancy", "setting": "XPO1; Rev-GFP U2OS, selinexor 4 hours, 48 hours post washout, 1 nM b-LMB", "value": "> 10", "unit": "µM"}, {"measurement": "90% Occupancy", "setting": "XPO1; Rev-GFP U2OS, selinexor 4 hours, 72 hours post washout, 1 nM b-LMB", "value": "> 10", "unit": "µM"}, {"measurement": "90% Occupancy", "setting": "XPO1; Rev-GFP U2OS, selinexor 4 hours, 96 hours post washout, 1 nM b-LMB", "value": "> 10", "unit": "µM"}, {"measurement": "90% Occupancy selinexor", "setting": "XPO1; THP-1", "value": 0.94, "unit": "µM"}, {"measurement": "90% Occupancy selinexor", "setting": "XPO1; UCH1", "value": 0.65, "unit": "µM"}, {"measurement": "90% Occupancy selinexor", "setting": "XPO1; UCH2", "value": 0.89, "unit": "µM"}, {"measurement": "IC50", "setting": "UCH2", "value": 30, "unit": "µM"}, {"measurement": "IC50", "setting": "MM.1S; 72 hours, read-out: IC50", "value": 0.02, "unit": "µM"}, {"measurement": "IC50", "setting": "MM.1S; [1]", "value": 0.02, "unit": "µM"}, {"measurement": "IC50", "setting": "HCT-116; 72 hours, read-out: IC50", "value": 0.05, "unit": "µM"}, {"measurement": "IC50", "setting": "HCT-116; [1]", "value": 0.05, "unit": "µM"}, {"measurement": "IC50", "setting": "THP-1", "value": 1.06, "unit": "µM"}, {"measurement": "IC50", "setting": "LS174T", "value": "> 10", "unit": "µM"}, {"measurement": "IC50", "setting": "A549", "value": 3, "unit": "µM"}, {"measurement": "IC50", "setting": "HT1080 resistant", "value": 2.4, "unit": "µM"}, {"measurement": "IC50", "setting": "AML2; 72 hours, read-out: IC50", "value": 0.09, "unit": "µM"}, {"measurement": "IC50", "setting": "AML2; [1]", "value": 0.09, "unit": "µM"}, {"measurement": "IC50", "setting": "HT1080", "value": 0.07, "unit": "µM"}, {"measurement": "IC50", "setting": "HEL", "value": 0.35, "unit": "µM"}]}]}
